Usually IC50 stands for the concentration needed to halve the response being measured.

Where two headings read alike, the source gives them in different places.

The values below come from patent publication US11505617B2, “Benzodiazepine derivatives” (IMMUNOGEN, INC., priority 2009, dated 2022).

The subject of one assay is Ramos cells. In words: In vitro cytotoxicity, Ramos cells. The note with it: Homo sapiens, read-out: IC50, in vitro antiproliferative activity. Type of assay: cell-based. The text has this:
(§1) The in vitro cytotoxicity of the cytotoxic compounds (e.g., indolinobenzodiazepine or oxazolidinobenzodiazepine), derivatives thereof, dimers thereof or conjugates thereof of the present invention can be evaluated for their ability to suppress proliferation of various cancerous cell lines in vitro (Tables 1, 2 in FIGS. 31, 32.). For example, cell lines such as the human breast carcinoma line SK-Br-3, or the human epidermoid carcinoma cell line KB, can be used for the assessment of cytotoxicity of these new compounds. Cells to be evaluated can be exposed to the compounds for 72 hours and the surviving fractions of cells measured in direct assays by known methods. IC50 values can then be calculated from the results of the assays.
(§2) Conjugates of cell-binding agents with cytotoxic agents of the invention can be evaluated for their ability to suppress proliferation of various unwanted cell lines in vitro. For example, cell lines such as the human colon carcinoma line COLO 205, the rhabdomyosarcoma cell line RH-30, and the multiple myeloma cell line MOLP-8 can be used for the assessment of cytotoxicity of these conjugates. Cells to be evaluated can be exposed to the compounds for 1-5 days and the surviving fractions of cells measured in direct assays by known methods. IC50 values can then be calculated from the results of the assays.
General Procedure Used: Samples of IGN Free Drugs or IGN Conjugates were added to 96-well flat bottomed tissue culture plates and titrated using serial dilutions to cover the desired molar range. Antigen positive (Ag+) or Antigen negative (Ag−) cells were added to the wells in specific cell densities in such a way that there were triplicate samples for each drug concentration for each corresponding cell line. The plates were then incubated at 37° C. in an atmosphere of 5% CO2 for 4-5 days depending on the cell line. COLO 205 (1,000 cells/well), Namalwa (3,000 cells/well)—4 days; RH30(1,000 cells/well), Ramos (10,000 cells/well), KB (1,000 cells/well)—5 days)
(§3) At the end of the incubation period cytotoxic potencies were then assessed using a WST-based cell viability assay and surviving cells were measured by developing with WST (2-7 hours). The absorbance in each well was measured and the surviving fraction of cells at each concentration was plotted to reveal the cytotoxicity and antigen specificity (of the conjugates).

In assay [1] the test system is single stranded DNA (ssDNA). In words: DNA probe assay control with single stranded DNA. The conditions noted are these: control experiments. The class given is binding. Here is the method: (§4) Reaction conditions: dsDNA ([…] final concentration) in 100 mM TRIS, 1 mM EDTA, pH 8 was mixed with 3.7 molar equivalents of IGN-01 (compound 18), IGN-02 (compound 19), or IGN-09 (compound 15) dissolved in acetonitrile (final acetonitrile concentration <2% by volume). The reaction was incubated at 15° C. (below TM of the dsDNA) and 10 μl aliquots are injected on reverse phase-HPLC at various time points after mixing
(§5) HPLC conditions: Waters Xbridge C8 2.1×50 mm column, Buffer A: 100 mM hexafluoroisopropanol, 16.3 mM triethylamine, in water, Buffer B: Methanol; 98% A→100% B over 32 min, 0.25 ml/min flow, 60° C. column heat, 260 nm detection. Areas under the curve (AUC) for the probe DNA peak and the resulting IGN/DNA adduct peak are used to determine the % crosslinking at each time point of incubation.
(§6) DNA annealing: single stranded DNA (Invitrogen) was annealed into dsDNA using a Peltier thermal cycler (PTC-200, MJ Research). 1 mM DNA in 100 mM TRIS, 1 mM EDTA pH 8 was heated to 80° C. and then gradually cooled to 4° C. over 90 min in 15 degree steps. The resulting dsDNA was kept at 4° C. until used in the assay.

In assay [2] the test system is double stranded DNA (dsDNA). Description: DNA probe assay for IGN dimer binding and alkylation to double stranded DNA. The note with it: for binding and covalent adduct formation with double stranded DNA: dsDNA containing guanine residues on opposite strands. As to the method:
as §4, §5, §6

The test system of a further assay is COLO205-MDR. Description: In vitro cytotoxicity, multi-drug resistant COLO 205 MDR cells. Type of assay: cell-based, human. The note with it: free compound; multi-drug resistant line vs COLO205.
Source text: as §1
Conjugates of cell-binding agents with cytotoxic agents of the invention can be evaluated for their ability to suppress proliferation of various unwanted cell lines in vitro. […] Cells to be evaluated can be exposed to the compounds for 1-5 days and the surviving fractions of cells measured in direct assays by known methods. IC50 values can then be calculated from the results of the assays. […]
At the end of the incubation period cytotoxic potencies were then assessed using a WST-based cell viability assay and surviving cells were measured by developing with WST (2-7 hours). […]

The subject of the next assay is RH30 cells. Description: In vitro cytotoxicity of conjugates, RH30 cells. Type of assay: cell-based, human.
Source text: as §2
General Procedure Used: Samples of IGN Free Drugs or IGN Conjugates were added to 96-well flat bottomed tissue culture plates and titrated using serial dilutions to cover the desired molar range. Antigen positive (Ag+) or Antigen negative (Ag−) cells were added to the wells in specific cell densities in such a way that there were triplicate samples for each drug concentration for each corresponding cell line. […]
as §3

With `COC(=O)CCCCOc1cc(COc2cc3c(cc2OC)C(=O)N2c4ccccc4C[C@H]2C=N3)cc(COc2cc3c(cc2OC)C(=O)N2c4ccccc4C[C@H]2C=N3)c1` [IGN03], the IC50 with Ramos cells (Ramos) was less than 1 pM.

As to `COC(=O)COc1cc(COc2cc3c(cc2OC)C(=O)N2c4ccccc4C[C@H]2C=N3)cc(COc2cc3c(cc2OC)C(=O)N2c4ccccc4C[C@H]2C=N3)c1` [IGN05], the half-inhibitory concentration (IC50) in the assay on Ramos cells (Ramos) was less than 1 pM.

Turning to `COc1cc2c(cc1OCc1cccc(COc3cc4c(cc3OC)C(=O)N3c5ccccc5C[C@H]3C=N4)c1)N=C[C@@H]1Cc3ccccc3N1C2=O` [IGN-01], the IC50 with Ramos cells (free compounds with and without linker, Ramos cell line (Table 2)) is less than 1 pM. Also, the “covalent adduct formation with single stranded DNA” value in assay [1] was “did not form covalent adducts”. For the same molecule, the “rate of DNA binding, dependence on DNA sequence” value in assay [2] (DNA with internal GATC motif vs GTAC sequence) is recorded as “binds faster to DNA containing an internal GATC motif”. Moreover, in assay [2], the “binding and covalent adduct formation with double stranded DNA” value (“binding and covalent adduct formation” below) was “bind and covalently adduct”. In addition, in assay [2] (probe containing no C-2 amino group), the “reaction with DNA probe substituted with deoxyInosine in place of guanine” value is on record as “no reaction”.

For `COc1cc2c(cc1OCc1cccc(COc3cc4c(cc3OC)C(=O)N3COC[C@H]3C=N4)c1)N=C[C@@H]1COCN1C2=O` [IGN-02], in assay [1], the “covalent adduct formation with single stranded DNA” value was “did not form covalent adducts”. Besides, the “binding and covalent adduct formation” value in assay [2] is “bind and covalently adduct”.

Turning to `COc1cc2c(cc1OCCCOc1cc3c(cc1OC)C(=O)N1c4ccccc4C[C@H]1C=N3)N=C[C@@H]1Cc3ccccc3N1C2=O` [IGN-09], the 50% inhibitory concentration (IC50) in the assay with Ramos cells (Ramos) is less than 1 pM. Besides, the “fold higher IC50 on COLO205-MDR than COLO205” value in the assay with COLO205-MDR is given as 4 fold. The “covalent adduct formation with single stranded DNA” value in assay [1] is listed as “did not form covalent adducts”. In assay [2], the “binding and covalent adduct formation” value is “bind and covalently adduct”.

B1: huN901-IGN03 (conjugate, chains of the INN, looked up)
VH: QVQLVESGGGVVQPGRSLRLSCAASGFTFSSFGMHWVRQAPGKGLEWVAYISSGSFTIYYADSVKGRFTISRDNSKNTLYLQMNSLRAEDTAVYYCARMRKGYAMDYWGQGTLVTVSS
VL: DVVMTQSPLSLPVTLGQPASISCRSSQIIIHSDGNTYLEWFQQRPGQSPRRLIYKVSNRFSGVPDRFSGSGSGTDFTLKISRVEAEDVGVYYCFQGSHVPHTFGQGTKVEIK
modifications: IGN03 indolinobenzodiazepine payload
In the case of B1, the results for the IC50 with RH30 cells (RH30 cells with an excess of unconjugated huN901 antibody) and with RH30 cells (antigen positive RH30 cells) were greater than 3000 pM and 15 pM, respectively.
